Reference: article PMC9380258, “Primary and secondary functions of HLA-E are determined by stability and conformation of the peptide-bound complexes” (Cell Reports, 2022)

Tests used:
HLA-E [1] = format: binding, human
HLA-E [2] = format: binding, human; remark: listed apart in the source
HLA-E*01:03 = HLA-E*01:03 (Homo sapiens, UniProt P13747); assay: SEC-SAXS of peptide-refolded HLA-E*01:03 complexes

## RMAATAVVL [Mtb14 P7V]
HLA-E [1]
  increase in thermal stability: 3.6 °C
HLA-E [2]
  increase in the ELISA-based binding signal: 36%
HLA-E*01:03
  decrease in the Rg: 6.8 Å
  decrease in the dmax: 23 Å
